Laboratory results taken from patent US20160145247A1, “Aminomethyl-Biaryl Derivatives Complement Factor D inhibitors and uses thereof” (NOVARTIS AG, priority 2013, published 2016).

Biological target: T1, factor D (Homo sapiens, UniProt P00746)
T1 construct: made in house; host or cells: E. coli
Test: factor D inhibition assay of Biological Example 2
Format: biochemical

T1 sequence (P00746 26-253): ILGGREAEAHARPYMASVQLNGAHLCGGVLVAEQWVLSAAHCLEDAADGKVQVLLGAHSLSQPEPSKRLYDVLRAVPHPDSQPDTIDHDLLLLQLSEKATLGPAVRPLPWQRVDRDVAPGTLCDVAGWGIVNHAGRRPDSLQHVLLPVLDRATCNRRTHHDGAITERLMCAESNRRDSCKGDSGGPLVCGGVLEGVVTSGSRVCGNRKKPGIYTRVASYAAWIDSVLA

Compound	IC50
NCc1cccc(-c2cccc(COc3ccccc3CC(=O)O)c2)n1 [Example 138-N]	0.028 µM
NCc1cccc(-c2cc(COc3ccccc3CC(=O)O)cc(NCC3CC3)c2)c1 [Example 139, 2-(2-((3′-(Aminomethyl)-5-((cyclopropylmethyl)amino)-[1,1′-biphenyl]-3-yl)methoxy)phenyl)acetic acid]	0.022 µM
NCc1cccc(-c2cc(COc3ccccc3CC(=O)O)cc(NC[C@@H]3CCCO3)c2)c1 [Example 140, (S)-2-(2-((3′-(Aminomethyl)-5-(((tetrahydrofuran-2-yl)methyl)amino)-[1,1′-biphenyl]-3-yl)methoxy)phenyl)acetic acid]	0.003 µM
N[C@H](CO)c1cccc(-c2cccc(COc3ccccc3CC(=O)O)c2)c1Cl [Example 141-B, (S)-2-(2-((3′-(1-Amino-2-hydroxyethyl)-2′-chloro-[1,1′-biphenyl]-3-yl)methoxy)phenyl)acetic acid]	0.014 µM
C[C@@H](N)c1cccc(-c2cccc(COc3ccccc3CC(=O)O)c2)c1Cl [Example 142-A]	0.346 µM
NCc1cccc(-c2cccc(COc3ccccc3CC(=O)O)c2)c1Cl [Example 142-B]	0.077 µM
Cc1c(-c2cccc(COc3ccccc3CC(=O)O)c2)cccc1[C@H](N)CO [Example 142-C]	49.6 µM
C[C@@H](N)c1cc(-c2cccc(COc3ccccc3CC(=O)O)c2)ccn1 [Example 142-D]	0.346 µM
N[C@H](CO)c1cccc(-c2cccc(COc3ccccc3CC(=O)O)c2)c1F [Example 142-E]	0.008 µM
C[C@@](N)(CO)c1cccc(-c2cccc(COc3ccccc3CC(=O)O)c2)c1 [Example 142-F]	0.26 µM
N[C@H](CO)c1cc(-c2cccc(COc3ccccc3CC(=O)O)c2)ccn1 [Example 142-G]	0.012 µM
C[C@H](N)c1cccc(-c2cccc(COc3ccccc3CC(=O)O)c2)c1F [Example 142-H]	0.022 µM
NCc1nccc(-c2cccc(COc3ccccc3CC(=O)O)c2)c1F [Example 142-I]	0.002 µM
NCc1nccc(-c2cccc(COc3ccccc3CC(=O)O)c2)n1 [Example 142-J]	0.067 µM
Cc1c(CN)cccc1-c1cccc(COc2ccccc2CC(=O)O)c1 [Example 143-C, 2-(2-((3′-(Aminomethyl)-2′-methyl-[1,1′-biphenyl]-3-yl)methoxy)phenyl)acetic acid]	0.132 µM
NCc1cccc(-c2cccc(COc3ccccc3CC(=O)O)c2)c1O [Example 144-C, 2-(2-((3′-(Aminomethyl)-2′-hydroxy-[1,1′-biphenyl]-3-yl)methoxy)phenyl)acetic acid]	0.056 µM
NC(=O)Cc1ccccc1OCc1cccc(-c2cccc([C@H](N)CO)c2)c1 [Example 146-C, (S)-2-(2-((3′-(1-Amino-2-hydroxyethyl)-[1,1′-biphenyl]-3-yl)methoxy)phenyl)acetamide]	18.4 µM

Compound	IC50
N[C@H](CO)c1cccc(-c2cc(COc3ccccc3CC(=O)O)cc(OCC3CC3)c2)c1 [Example 147-B, (S)-2-(2-((3′-(1-Amino-2-hydroxyethyl)-5-(cyclopropylmethoxy)-[1,1′-biphenyl]-3-yl)methoxy)phenyl)acetic acid]	0.005 µM
C[C@@H](N)c1cccc(-c2cc(COc3ccccc3CC(=O)O)cc(OCC3CC3)c2)c1F [Example 148, (R)-2-(2-((3′-(1-Aminoethyl)-5-(cyclopropylmethoxy)-2′-fluoro-[1,1′-biphenyl]-3-yl)methoxy)phenyl)acetic acid]	0.009 µM
Cc1ccc(COc2ccccc2CC(=O)O)cc1-c1cccc(CN)c1F [Example 149, 2-(2-((3′-(Aminomethyl)-2′-fluoro-6-methyl-[1,1′-biphenyl]-3-yl)methoxy)phenyl)acetic acid]	0.044 µM
C[C@@H](N)c1cccc(-c2cc(COc3ccccc3CC(=O)O)cc(NCC3CC3)c2)c1F [Example 150-C, (R)-2-(2-((3′-(1-Aminoethyl)-5-((cyclopropylmethyl)amino)-2′-fluoro-[1,1′-biphenyl]-3-yl)methoxy)phenyl)acetic acid]	0.004 µM
CCNc1cc(COc2ccccc2CC(=O)O)cc(-c2cccc([C@@H](C)N)c2F)c1 [Example 151, (R)-2-(2-((3′-(1-aminoethyl)-5-(ethylamino)-2′-fluoro-[1,1′-biphenyl]-3-yl)methoxy)phenyl)acetic acid]	0.006 µM
CC(C)Nc1cc(COc2ccccc2CC(=O)O)cc(-c2cccc([C@@H](C)N)c2F)c1 [Example 152, (R)-2-(2-((3′-(1-aminoethyl)-2′-fluoro-5-(isopropylamino)-[1,1′-biphenyl]-3-yl)methoxy)phenyl)acetic acid]	0.011 µM
C[C@@H](N)c1cccc(-c2cc(COc3ccccc3CC(=O)O)cc(NC[C@H]3CCCO3)c2)c1F [Example 153, 2-(2-((3′-((R)-1-Aminoethyl)-2′-fluoro-5-((((R)-tetrahydrofuran-2-yl)methyl)amino)-[1,1′-biphenyl]-3-yl)methoxy)phenyl)acetic acid]	0.004 µM
NCc1ccnc(-c2cccc(COc3ccccc3CC(=O)O)c2)n1 [Example 158-C, 2-(2-((3-(4-(Aminomethyl)pyrimidin-2-yl)benzyl)oxy)phenyl)acetic acid]	1.79 µM
NCc1cccc(-c2cccc(COc3ccccc3CC(=O)O)n2)c1 [Example 160, 2-(2-((6-(3-(aminomethyl)phenyl)pyridin-2-yl)methoxy)phenyl)acetic acid]	1.14 µM
NCc1cccc(-c2ccnc(COc3ccccc3CC(=O)O)c2)c1 [Example 164, 2-(2-((4-(3-(Aminomethyl)phenyl)pyridin-2-yl)methoxy)phenyl)acetic acid]	0.013 µM
NCc1cccc(-c2ccc(C(F)(F)F)c(COc3ccccc3CC(=O)O)c2)c1 [Example 165, 2-(2-((3′-(Aminomethyl)-4-(trifluoromethyl)-[1,1′-biphenyl]-3-yl)methoxy)phenyl)acetic acid]	0.021 µM
NCc1cccc(-c2ccc(F)c(COc3ccccc3CC(=O)O)c2)c1 [Example 166, 2-(2-((3′-(Aminomethyl)-4-fluoro-[1,1′-biphenyl]-3-yl)methoxy)phenyl)acetic acid]	0.023 µM
N[C@H](CO)c1cccc(-c2ccc(C(F)(F)F)c(COc3ccccc3CC(=O)O)c2)c1 [Example 167, (S)-2-(2-((3′-(1-Amino-2-hydroxyethyl)-4-(trifluoromethyl)-[1,1′-biphenyl]-3-yl)methoxy)phenyl)acetic acid]	0.03 µM
NCc1cccc(-c2cccc(COc3ccc(Br)cc3CC(=O)O)c2)c1 [Example 168, 2-(2-((3′-(Aminomethyl)-[1,1′-biphenyl]-3-yl)methoxy)-5-bromophenyl)acetic acid]	0.027 µM
COC[C@@H](N)c1cccc(-c2cccc(COc3ccccc3CC(=O)O)c2)c1 [Example 169, (S)-2-(2-((3′-(1-Amino-2-methoxyethyl)-[1,1′-biphenyl]-3-yl)methoxy)phenyl)acetic acid]	0.033 µM
N[C@H](CO)c1cccc(-c2ccnc(COc3ccccc3CC(=O)O)c2)c1 [Example 170, (S)-2-(2-((4-(3-(1-Amino-2-hydroxyethyl)phenyl)pyridin-2-yl)methoxy)phenyl)acetic acid]	0.022 µM
CCOC[C@@H](N)c1cccc(-c2cccc(COc3ccccc3CC(=O)O)c2)c1 [Example 173, (S)-2-(2-((3′-(1-Amino-2-ethoxyethyl)-[1,1′-biphenyl]-3-yl)methoxy)phenyl)acetic acid]	0.147 µM
